These results are taken from patent US10299714B2, “Blood collection devices containing blood stabilization agent including variegin or analog thereof and/or a polysulfated disaccharide” (Becton, Dickinson and Company, priority 2010, dated 2019).

Where a name gives a salt, the structure may show the parent alone. Non-standard residues stand in square brackets, D forms with d. Residues, ends and D or L forms follow the SMILES beside them. Oic = O=C(O)[C@@H]1C[C@@H]2CCCC[C@@H]2N1; Phe(4-Me) = Cc1ccc(C[C@H](N)C(=O)O)cc1

The test system of data set [1] is whole blood sample. As to the kind of experiment: Visual inspection of stored whole blood sample for hemolysis. To be noted: Table 5. It counts as cell-based, human. The text has this:
Skilled practitioners will appreciate the hemolyzed samples are an obvious visual clue that damage to blood cells has occurred, either during the collection, transport, or storage of blood samples. Although hemolysis is not necessarily detrimental to any one clinical assay, it is a well known interference for some tests, and thus it is preferable to avoid causing hemolysis. Hemolysis can be measured by visual scale (e.g., mild or slightly pink, moderate or noticeably red, or severe or dark red). Hemolysis can also be measured by spectroscopic measurement of the red color of the hemoglobin itself, and can be reported by the concentration of hemoglobin released into the serum or plasma (e.g., such that less than about 20 mg/dL concentration of released hemoglobin, or to an extent that the hemoglobin concentration cannot be measured visually or by spectroscopy represents “minor or negligible” hemolysis, about 20 to about 100 mg/dL represents “mild” hemolysis, about 100 to about 300 represents “moderate” hemolysis, or greater than about 300 mg/dL represents “severe” hemolysis).
(§1) The results are shown in Table 5 which lists additives alone or in combination that were spiked into freshly drawn whole blood samples. […] For some of the conditions tested, only a subset of these three parameters was recorded.

Data set [2] concerns platelets. As to the kind of experiment: Whole blood impedance aggregometry (Multiplate): platelet aggregation after room temperature storage of drawn blood. It counts as cell-based, human. The text has this:
The blood was allowed to stand at room temperature, in undisturbed aliquots, until tested at the times indicated. Samples were inverted several times immediately prior to testing, to re-suspend blood cells that naturally settle over time.
Measurements: Testing of platelet function (which in this experiment, was aggregation activity) was done using the Multiplate instrument (Verum Diagnostics, Munich, Germany), which uses whole blood as the sample and an increase in impedance as the measurement of platelet aggregation. The instrument was used per manufacturer's instructions. Briefly, 300 microliters of isotonic saline was warmed in each reaction cuvette, and to this was added 300 microliters of the whole blood sample. In reactions where aspirin or other platelet antagonists (inhibitors) were added in vitro, 20 microliters (μL) of a stock solution of aspirin was spiked into the samples. The aggregation reaction was initiated by addition of a platelet agonist, in this case collagen, at 3.2 μg/ml and volume (20 μl) per manufacturer's instructions. Upon addition of the collagen, the impedance measurements began automatically, and were continued for 6 minutes, representing the full course along the x-axis in the graphs shown in FIG. 2. The graphs show platelet aggregation, as reported by impedance, as an arbitrary unitless measurement on the y-axis, over the 6-minute run time on the x-axis. Traces shown are raw platelet aggregation data delivered from the instrument. […] Representative data are shown for blood that dwells at room temperature after the initial draw for 1 hr, 24 hr, 48 hr, and 72 hr. Data are shown for the blood itself, as well for blood pre-treated with aspirin to inhibit platelet function immediately prior to testing.
The experiments were performed as described in Example 1. In this case, the data are plotted as a function of time that the blood sample dwells outside of the body (x-axis) versus platelet function as shown as the area under the curve (AUC) as one representation of the platelet aggregation signal. AUC is the integrated signal from the raw data traces shown in Example 1, and also is reported as a unitless measurement. The effective background level of the instrument is drawn as a dashed line across the bottom of the graph. Any AUC measurement of aggregation at or below this level was considered so weak as to be unreportable, essentially representing a “null” data level.
(§2) Relative stability of platelets was examined with respect to a range of concentrations of variegin (SEQ ID NO:1). Experiments were performed as described above, using either collagen or adenosine diphosphate (ADP) as agonists, all per manufacturer's recommended protocols. Table 2 lists a qualitative assessment of stability, namely how long after initially drawing the blood was platelet aggregation measureable above the effective instrument baseline, the time to first visual observation of clotted, insoluble material in the whole blood sample, and an assessment of the severity or extent of the presence of this insoluble material was also recorded.
These peptides were used as the blood stabilization agent, and were spiked into blood immediately after collection into an empty, evacuated blood collection tube, achieving a final concentration of 150 μM. The blood was allowed to dwell in a whole-blood state at room temperature, until assayed for platelet aggregation potential, all as described in Example 1. Agonists used included collagen and ADP, following manufacturer's instructions.

Data set [3] deals with platelets. Briefly: Platelet aggregation measurements using low dose ADP agonist, inventive tube versus hirudin tube. It counts as cell-based, human. The arrangement: key to Aggregation, AUC: area under curve of impedance aggregation trace, arbitrary unitless units. The note with it: ADP 1.25 μM. On the procedure:
Measurements: Testing of platelet function (which in this experiment, was aggregation activity) was done using the Multiplate instrument (Verum Diagnostics, Munich, Germany), which uses whole blood as the sample and an increase in impedance as the measurement of platelet aggregation. The instrument was used per manufacturer's instructions. Briefly, 300 microliters of isotonic saline was warmed in each reaction cuvette, and to this was added 300 microliters of the whole blood sample. In reactions where aspirin or other platelet antagonists (inhibitors) were added in vitro, 20 microliters (μL) of a stock solution of aspirin was spiked into the samples. The aggregation reaction was initiated by addition of a platelet agonist, in this case collagen, at 3.2 μg/ml and volume (20 μl) per manufacturer's instructions. Upon addition of the collagen, the impedance measurements began automatically, and were continued for 6 minutes, representing the full course along the x-axis in the graphs shown in FIG. 2. The graphs show platelet aggregation, as reported by impedance, as an arbitrary unitless measurement on the y-axis, over the 6-minute run time on the x-axis. Traces shown are raw platelet aggregation data delivered from the instrument. The duplicate traces evident in some of the graphs represent two duplicate measurement channels that always ran simultaneously, to assist with statistical significance of the data, and often so closely overlap as to look like only a single trace in some graphs. Representative data are shown for blood that dwells at room temperature after the initial draw for 1 hr, 24 hr, 48 hr, and 72 hr. Data are shown for the blood itself, as well for blood pre-treated with aspirin to inhibit platelet function immediately prior to testing.
Relative stability of platelets was examined in blood that was collected from 5 different human subjects using an inventive blood collection tube containing 150 μM variegin (SEQ ID NO:1)+1.17 USP/mL unfractionated heparin, and as a comparison, blood collection tubes containing hirudin, commercially available from Verum Diagnostica (Catalog #MP0600 for “Hirudin vacuum blood collection tube”). Experiments were carried out as described above in Example 1, using the whole blood impedance aggregometer, and using a low dose of ADP (1.25 μM final concentration) as the agonist.

For data set [4], the system named is whole blood sample. As to the kind of experiment: Visual inspection of stored whole blood sample for clotted, insoluble material. The arrangement: species or system human. To be noted: peptide 150 μM; room temperature. The protocol: as §2
These peptides were used as the blood stabilization agent, and were spiked into blood immediately after collection into an empty, evacuated blood collection tube, achieving a final concentration of 150 μM. The blood was allowed to dwell in a whole-blood state at room temperature, until assayed for platelet aggregation potential, all as described in Example 1. Agonists used included collagen and ADP, following manufacturer's instructions. Table 4 lists a qualitative assessment of stability, namely how long after initially drawing the sample was platelet aggregation measureable above the effective instrument baseline. Additionally, the time to first visual observation of clotted, insoluble material in the whole blood sample, and an assessment of the severity or extent of the presence of this insoluble material was also recorded. In some cases, only visual characterization of the amount of insoluble material was reported, without having performed any platelet aggregation measurements.
as §1

The mark [5] stands for this setting: Table 4, peptide spiked into blood to 150 μM final, collagen and ADP, room temperature.

On to `O=S(=O)(O)OC[C@H]1O[C@@](COS(=O)(=O)O)(O[C@H]2O[C@H](COS(=O)(=O)O)[C@@H](OS(=O)(=O)O)[C@H](OS(=O)(=O)O)[C@H]2OS(=O)(=O)O)[C@@H](OS(=O)(=O)O)[C@@H]1OS(=O)(=O)O` [SOS, sucrose octasulfate], for which the “Visual inspection for hemolysis” value in data set [1] (additive alone at 2 mM) is given as “None-mild”.
Take `Cc1ccc(C[C@H](NC(=O)[C@@H](C)NC(=O)[C@@H]2CCCN2C(=O)[C@@H]2C[C@@H]3CCCC[C@@H]3N2C(=O)[C@H](N)CCCN=C(N)N)C(N)=O)cc1` [Thrombostatin (FM-19), rOicPaF(p-Me)—NH2] (H-[dR][Oic]P[dA][Phe(4-Me)]-NH2): the “Visual inspection for hemolysis” value in data set [1] (additive alone at 30 μM) is “None-mild”.
Regarding `O=C(O)CC(O)(CC(=O)O)C(=O)O` [citrate, sodium citrate, reference compound], the “platelet aggregation, area under the curve (AUC), FIG. 3” value in data set [2] (24 hr after draw, collagen, no aspirin) is reported as “very close to the effective null level”; in data set [2] (48 hr after draw, collagen, no aspirin), “no meaningful aggregation was detected”. For the same compound, the “platelet aggregation signal (impedance, FIG. 2)” value in data set [2] (all times longer than 1 hr (24, 48, 72 hr), collagen, sodium citrate ([…]) tube) is recorded as “clearly lost, resulting in almost non-measureable signal”. In addition, the “loss of platelet function relative to the 1 hr sample (FIG. 4)” value in data set [2] (within 24 hr, collagen, average of three human subjects) was “lost well more than half of their function”.
Turning to `CC[C@H](C)[C@H](NC(=O)[C@H](C)NC(=O)[C@H](CCC(=O)O)NC(=O)[C@H](Cc1ccccc1)NC(=O)[C@H](CC(=O)O)NC(=O)[C@H](Cc1ccccc1)NC(=O)[C@@H]1CCCN1C(=O)[C@@H]1CCCN1C(=O)[C@H](C)NC(=O)[C@@H](NC(=O)[C@H](CCCCN)NC(=O)[C@H](Cc1cnc[nH]1)NC(=O)[C@H](CCSC)NC(=O)[C@H](CCCCN)NC(=O)[C@@H]1CCCN1C(=O)[C@H](CCC(=O)O)NC(=O)[C@H](C)NC(=O)[C@@H](NC(=O)[C@H](CC(=O)O)NC(=O)CNC(=O)[C@H](CCC(N)=O)NC(=O)[C@H](CC(=O)O)NC(=O)[C@@H](N)CO)C(C)C)[C@@H](C)O)C(=O)N1CCC[C@H]1C(=O)N[C@@H](CCC(=O)O)C(=O)N[C@@H](CCC(=O)O)C(=O)N[C@@H](Cc1ccc(O)cc1)C(=O)N[C@@H](CC(C)C)C(=O)N[C@@H](CC(=O)O)C(=O)N[C@@H](CC(=O)O)C(=O)N[C@@H](CCC(=O)O)C(=O)N[C@@H](CO)C(=O)O` [variegin], the “platelet aggregation signal (impedance, FIG. 2)” value is recorded as “preserved platelet function substantially at the level of function measured in the 1 hr-old sample” in data set [2] (24 and 48 hrs after draw, collagen, tube with 150 μM variegin, room temperature); “slightly reduced but still sufficiently strong” in data set [2] (72 hr after draw, collagen, tube with 150 μM variegin, room temperature). Further, the “platelet aggregation, area under the curve (AUC), FIG. 3” value in data set [2] (72 hr after draw, collagen, 150 μM variegin) is given as “meaningful measurements even at 72 hr”. The “Time after blood draw where aggregation was still measurable above baseline” value in data set [2] (Table 2, 2 μM variegin, collagen or ADP, room temperature) is 2 h; in data set [2] (Table 2, 15 μM variegin, collagen or ADP, room temperature), 24 h; in data set [2] (Table 2, 50 μM variegin, collagen or ADP, room temperature), 24 h; in data set [2] (Table 2, 75 μM variegin, collagen or ADP, room temperature), 48 to 72 h; in data set [2] (Table 2, 150 μM variegin, collagen or ADP, room temperature) it was at least 72 h; in data set [2] (setting [5]), 72 h. Also, the “platelet aggregation signal maintained relative to the 1 hr sample (FIG. 4)” value in data set [2] (as of 48 hr, collagen, average of three human subjects, 150 μM variegin) is listed as “well more than half of the signal was maintained”. In addition, the “strength of platelet aggregation signal (impedance, FIG. 2)” value in data set [2] (fresh sample, 1 hr after draw, collagen […], tube with 150 μM variegin or sodium citrate ([…]), room temperature) is “higher than the citrate reference sample”. Also, in data set [1] (additive alone at 150 μM), the “Visual inspection for hemolysis” value was “None-mild”.
As to “GDVAEPKMHKTAPPFDFEAIPEEYLDDES (Synthetic Peptide Variegin Fragment) [Ct29]”, in data set [2] (setting [5]), the “Time after blood draw where aggregation was still measurable above baseline” value fell in the range of 54 to 79 h.
Hirudin: the “Aggregation, AUC” value was 34 in data set [3] (0 hr, Subject 1); 18 in data set [3] (0 hr, Subject 2); 84 in data set [3] (0 hr, Subject 3); 113 in data set [3] (0 hr, Subject 4); 59 in data set [3] (0 hr, Subject 5); 27 in data set [3] (24 hr, Subject 1). Further, the “Aggregation, AUC” value in data set [3] (24 hr, Subject 2) was determined as 15; in data set [3] (24 hr, Subject 3), 25; in data set [3] (24 hr, Subject 4), 22; in data set [3] (24 hr, Subject 5), 37. Further, the “area under the curve for the 1 h sample” value in data set [3] (one of the five samples) came out at 18. Also, the “aggregation (AUC), mean +/- spread of the 5 samples” value in data set [3] (time zero) was 62+/−38.
On to “SDQGDVAEPAMHKTAPPFDFEAIPEEYLDDES (Synthetic Peptide Variegin Fragment) [K10A]”, for which the “time after blood draw to solid clotting of the sample” value in data set [4] is at most 4 h.
With heparin [reference compound], the “blood stabilization performance (data not shown)” value in data set [2] (used alone at 1.17 U/ml) was “performed relatively poorly”.
